Values of other authors as cited in US20110130434A1, “MODIFIED RELEASE RAMIPRIL COMPOSITIONS AND USES THEREOF” (Panacea Biotec Ltd., priority 2008, published 2011).

Assays:
[1] = biological target: ACE (Homo sapiens, UniProt P12821)
[2] = after oral administration of ramipril

ACE, sequence (P12821 30-1306, species assumed): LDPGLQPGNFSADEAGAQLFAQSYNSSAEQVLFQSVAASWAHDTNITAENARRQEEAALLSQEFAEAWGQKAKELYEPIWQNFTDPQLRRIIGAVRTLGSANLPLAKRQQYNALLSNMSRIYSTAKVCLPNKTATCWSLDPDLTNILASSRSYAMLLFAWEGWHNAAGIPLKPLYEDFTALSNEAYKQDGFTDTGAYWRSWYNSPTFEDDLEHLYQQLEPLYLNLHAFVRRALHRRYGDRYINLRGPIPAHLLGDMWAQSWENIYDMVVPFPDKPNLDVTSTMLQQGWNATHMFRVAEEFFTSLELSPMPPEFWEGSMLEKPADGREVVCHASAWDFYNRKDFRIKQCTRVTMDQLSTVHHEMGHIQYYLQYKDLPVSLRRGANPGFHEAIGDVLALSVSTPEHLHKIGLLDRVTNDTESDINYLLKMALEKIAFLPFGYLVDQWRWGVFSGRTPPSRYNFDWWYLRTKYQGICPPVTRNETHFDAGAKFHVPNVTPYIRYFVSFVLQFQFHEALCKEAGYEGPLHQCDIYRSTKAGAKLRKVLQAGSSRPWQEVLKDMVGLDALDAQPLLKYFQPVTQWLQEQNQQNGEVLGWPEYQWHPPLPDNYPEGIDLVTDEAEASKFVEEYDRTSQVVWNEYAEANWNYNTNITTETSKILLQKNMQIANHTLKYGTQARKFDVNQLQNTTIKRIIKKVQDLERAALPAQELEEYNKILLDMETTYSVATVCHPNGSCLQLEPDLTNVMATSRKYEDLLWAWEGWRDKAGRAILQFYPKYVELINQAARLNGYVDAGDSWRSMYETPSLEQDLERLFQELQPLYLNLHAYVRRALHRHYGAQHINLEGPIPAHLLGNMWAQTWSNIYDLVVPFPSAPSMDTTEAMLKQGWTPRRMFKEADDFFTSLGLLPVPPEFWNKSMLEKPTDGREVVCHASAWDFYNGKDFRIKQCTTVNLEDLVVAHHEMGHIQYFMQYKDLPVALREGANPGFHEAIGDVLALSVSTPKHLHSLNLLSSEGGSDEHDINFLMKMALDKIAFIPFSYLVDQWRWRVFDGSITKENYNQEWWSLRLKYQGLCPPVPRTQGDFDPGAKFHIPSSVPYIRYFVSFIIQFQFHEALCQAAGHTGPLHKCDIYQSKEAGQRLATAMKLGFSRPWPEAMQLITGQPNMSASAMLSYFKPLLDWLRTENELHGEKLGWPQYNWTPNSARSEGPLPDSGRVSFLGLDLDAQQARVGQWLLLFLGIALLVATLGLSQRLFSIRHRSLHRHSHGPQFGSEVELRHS

In the case of `C[C@H](N[C@@H](CCc1ccccc1)C(=O)O)C(=O)N1[C@H](C(=O)O)C[C@@H]2CCC[C@@H]21` [ramiprilat], the “ACE inhibitory activity relative to ramipril” value [1] is listed as 6 times and the half life [2] is listed as 13 to 17 h.
